Experimental data taken from US7132234B2, “Methods and compositions for the identification of anti-poxvirus agents” (priority 2003, dated 2006).
Where a SMILES comes first, the peptide text is derived from it. The star is where a group is joined. Cbz = O=C(OCc1ccccc1)*

Tested on: 26S proteasome-mediated degradation of SP28
Format: cell-based

SMILES: CC(C)C[C@@H](C=O)NC(=O)[C@H](CC(C)C)NC(=O)[C@H](CC(C)C)NC(=O)OCc1ccccc1 [MG132] (Cbz-Leu-Leu-Leu-aldehyde)
- Stability of SP28 C173A/H199A mutant in cells: also stabilized by MG132, although to a much lesser extent
- Stability of wild-type SP28 in cells: remarkably enhanced stability of wild-type SP28
